From patent US20240010639A1, “TRIAZINE DIONE DERIVATIVE, PREPARATION METHOD THEREFOR AND APPLICATION THEREOF IN MEDICINE” (Jiangsu Hengrui Pharmaceuticals Co., Ltd., priority 2020, published 2024)
Where two headings read alike, the source gives them in different places.

What was measured:
[1] = Identification of reactive metabolites (GSH conjugates) in human liver microsomes; format: in vitro ADME; settings: for Identification of reactive metabolites: Result: human liver microsomes 1 mg/mL, test compound 30 μM, GSH 5 mM, NADPH 1.0 mM, 60 min, 37° C.; for glutathione (GSH) conjugate associated with the compound detected (in words): human liver microsomes, GSH trapping
Procedure: The identification of reactive metabolites of the compound disclosed herein in human liver microsomes was carried out using the experimental method below:
• 1. Phosphate-buffered saline (purchased from Shanghai Sangon) • 2. NADPH (ACROS, A2646-71-1) • 3. Human liver microsome (Corning Gentest, Cat No. 452161, Lot No. 905002) • 4. Thermo UHPLC-Q-Exactive Orbitrap mass spectrometer (Thermo Fisher Scientific) • 5. Acquity BEH C18 column, 2.1×100 mm, 1.7 μm (Waters, USA) • 6. Positive control compound (diclofenac).
• 1. Preparation of test compound solutions: A proper amount of a test compound was precisely measured out and dissolved in a proper amount of DMSO. After the solution was well mixed, a 30 mM stock solution was obtained. A […] stock solution was 10-fold diluted with 50% acetonitrile/water (v/v) to obtain a 3.0 mM working solution 1. The 3.0 mM working solution 1 was 10-fold diluted with PBS to obtain a 300 μM working solution 2, and the solution was stored at 4° C. before use. • 2. Preparation of phosphate-buffered saline: Proper amounts of K2HPO4 and KH2PO4 were measured out and dissolved in 4 L of pure water to prepare a 100 mM buffer, and the pH was then adjusted with phosphoric acid or sodium hydroxide to 7.4. • 3. Preparation of liver microsome solutions: Proper amounts of liver microsome stock solutions of various species (20 mg/mL) were measured out and diluted with the 100 mM phosphate-buffered saline (pH 7.4) to prepare 1.43 mg/mL microsome solutions. • 4. Preparation of NADPH cofactor solution: Proper amounts of NADPH and magnesium chloride were measured out and dissolved in a proper amount of the 100 mM phosphate-buffered saline (pH 7.4) so the concentrations of NADPH and magnesium chloride were 10 mM and 30 mM, respectively, and the solutions were stored for later use. • 5. Preparation of glutathione (GSH) solution: A proper amount of glutathione was measured out and dissolved in a proper amount of the 100 mM phosphate-buffered saline (pH 7.4) so the concentration of GSH was 50 mM, and the solution was stored for later use. • 6. The incubation system is shown below:
To a 1.5 mL centrifuge tube, 20 μL of the 300 μM working solution 2 was precisely transferred and 140 μL of a 1.43 mg/mL liver microsome solution was then added so the concentration of liver microsomal protein in the incubation system was 1 mg/mL. […] The collected data were processed and analyzed using Xcalibur software. According to the exact molecular weight, tandem mass spectrometry fragments were analyzed to see if the compound disclosed herein would be metabolically activated to produce reactive metabolites.

[2] = Pharmacokinetic evaluation in cynomolgus monkeys; format: in vivo; settings: for AUC / half-life / Cmax / MRT / Vd/F / CL/F: both (Example 16), male (MYK-461), cynomolgus monkey, plasma; for AUC: read-out: Area under curve AUC; for half-life: read-out: Half-life T1/2 (converted); for Cmax: read-out: Plasma concentration Cmax; for MRT: read-out: Residence time MRT; for Vd/F: read-out: Apparent volume of distribution Vz/F; for CL/F: read-out: Clearance CL/F
Procedure: With cynomolgus monkeys as test animals, the plasma concentrations of the test compounds were measured by LC/MS/MS at different time points after intragastric administration and intravenous injection. The pharmacokinetic performance of the compound disclosed herein was studied in cynomolgus monkeys and its pharmacokinetic profile was evaluated.
Pharmacokinetics of the compound of Example 16 in cynomolgus monkeys: 8 cynomolgus monkeys, an equal number of males and females, divided into 2 groups of 4, provided by Shanghai Medicilon Inc.
Pharmacokinetics of compound MYK-461 in cynomolgus monkeys: 6 cynomolgus monkeys, male, divided into 2 groups of 3, provided by Shanghai Medicilon Inc.
A certain amount of the compound of Example 16 was measured out, and 5% DMSO, 30% PG, 30% PEG400 and 35% normal saline were added to prepare a clear solution.
A certain amount of compound MYK-461 was measured out, and 5% DMSO, 20% PG, 20% PEG400 and 55% normal saline were added to prepare a clear solution.
Cynomolgus monkeys were fasted overnight and then given compounds by intragastric administration and intravenous injection at doses of 2 mg/kg and 0.5 mg/kg, respectively, and at volumes of 5 mL/kg and 2 mL/kg, respectively.
1.0-mL blood samples were collected from the forelimb veins of the animals in the intragastric administration group before administration and 0.25 h, 0.5 h, 1h, 2 h, 4 h, 6 h, 8 h, 12 h and 24 h after administration, placed into EDTA-K2 anticoagulant tubes, and centrifuged at 10,000 rpm for 5 min (4° C.), and plasma was isolated within 1 h and stored at −80° C. before analysis. The blood collection to centrifugation process was performed under ice bath conditions. Three hours after administration, feeding was resumed, and ad libitum access to water was given.
Blood samples were collected from the animals in the intravenous injection group before administration and 5 min, 0.25 h, 0.5 h, 1.0 h, 2.0 h, 4.0 h, 8.0 h, 12.0 h and 24.0 h after administration and processed as in the intragastric administration group.
Determination of plasma concentrations in cynomolgus monkeys after intragastric administration and intravenous injection of different concentrations of test compounds: 20 μL of cynomolgus monkey plasma at each time point post-dose was mixed with an internal standard solution (internal standard for the compound of Example 16: 10 ng/mL verapamil; internal standard for compound MYK-461: 100 ng/mL camptothecin) and 400 μL of methanol; the mixture was vortexed for 1 min and centrifuged at 18,000 g for 7 min, and 200 μL of the supernatant was transferred to a 96-well plate: 2 μL of the supernatant was taken for LC/MS/MS analysis.

[3] = intravenous injection, 0.5 mg/kg
[4] = po, intragastric administration, 2 mg/kg

| SMILES | Identification of reactive metabolites: Result [1] | glutathione (GSH) conjugate associated with the compound detected (in words) [1] | T1/2 comparison (in words) [2] | absorption profile (in words) [2] | AUC [2, 3] [ng·h/mL] | half-life [2, 3] [h] | Cmax [2, 3] [ng/mL] | MRT [2, 3] [h] | Vd/F [2, 4] [L/kg] | AUC [2, 4] [ng·h/mL] | CL/F [2, 4] [mL/min/kg] | half-life [2, 4] [h] | Cmax [2, 4] [ng/mL] | MRT [2, 4] [h] | Apparent volume of distribution Vz/F [2, 3] [L/kg] | Clearance CL/F [2, 3] [mL/min/kg] |
| --- | --- | --- | --- | --- | --- | --- | --- | --- | --- | --- | --- | --- | --- | --- | --- | --- |
| Cc1ccc(F)c([C@H](C)Nc2nc(=O)n(C3CCOCC3)c(=O)[nH]2)c1 [Example 16, (S)-6-((1-(2-Fluoro-5-methylphenyl)ethyl)amino)-3-(tetrahydro-2H-pyran-4-yl)-1,3,5-triazine-2,4(1H,3H)-dione] | Negative | no glutathione (GSH) conjugate | significantly shorter T1/2 | good absorption profile | 1020 | 5.6 | 1660 | 6.8 | 10.3 | 2400 | 11.8 | 10.3 | 553 | 12.5 | 3.579 | 7.46 |
| CC(C)n1c(=O)cc(N[C@@H](C)c2ccccc2)[nH]c1=O [MYK-461, reference compound] | Positive | detected | longer T1/2 | – | 976 | 27.3 | 222 | 42.8 | 11.4 | 3520 | 2.34 | 78.3 | 563 | 114 | 8.203 | 5.02 |
